Assay results published in ChEMBL document CHEMBL4312034, “Virtual screening-driven discovery of dual 5-HT6/5-HT2A receptor ligands with pro-cognitive properties” (Eur J Med Chem, 2020).
Active and inactive are the calls of the source. The calls are words filed in the database; no cut-off is given here.

How the values were obtained:
[1] = target: 5-hydroxytryptamine receptor 7 (Homo sapiens, UniProt P34969); assay: Displacement of [3H]-CT from human 5-HT7 receptor expressed in HEK293 cells after 1 hr by microbeta plate reader analysis; assay type: cell-based
Chain of 5-hydroxytryptamine receptor 7 (P34969 whole entry): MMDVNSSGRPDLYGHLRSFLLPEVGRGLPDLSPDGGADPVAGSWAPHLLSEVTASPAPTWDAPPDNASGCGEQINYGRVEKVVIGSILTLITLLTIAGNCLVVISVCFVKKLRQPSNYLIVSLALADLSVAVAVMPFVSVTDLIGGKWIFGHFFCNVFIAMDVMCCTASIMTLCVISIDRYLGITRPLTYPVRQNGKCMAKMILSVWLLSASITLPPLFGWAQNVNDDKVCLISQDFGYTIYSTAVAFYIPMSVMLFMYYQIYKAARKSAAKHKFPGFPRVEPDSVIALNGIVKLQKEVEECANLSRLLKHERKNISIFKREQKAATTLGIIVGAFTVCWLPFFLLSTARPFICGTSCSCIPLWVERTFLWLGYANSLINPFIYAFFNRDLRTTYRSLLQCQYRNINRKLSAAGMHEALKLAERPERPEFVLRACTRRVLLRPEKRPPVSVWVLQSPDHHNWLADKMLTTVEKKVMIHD

P-gp (ABCB1) [2] = target: T1, P-gp (ABCB1) (Homo sapiens, UniProt P08183); assay: Substrate activity at Pgp (unknown origin) assessed as permeability from apical to basolateral side by cell based assay; assay type: ADME; conditions: not told
T1 sequence (P08183 whole entry): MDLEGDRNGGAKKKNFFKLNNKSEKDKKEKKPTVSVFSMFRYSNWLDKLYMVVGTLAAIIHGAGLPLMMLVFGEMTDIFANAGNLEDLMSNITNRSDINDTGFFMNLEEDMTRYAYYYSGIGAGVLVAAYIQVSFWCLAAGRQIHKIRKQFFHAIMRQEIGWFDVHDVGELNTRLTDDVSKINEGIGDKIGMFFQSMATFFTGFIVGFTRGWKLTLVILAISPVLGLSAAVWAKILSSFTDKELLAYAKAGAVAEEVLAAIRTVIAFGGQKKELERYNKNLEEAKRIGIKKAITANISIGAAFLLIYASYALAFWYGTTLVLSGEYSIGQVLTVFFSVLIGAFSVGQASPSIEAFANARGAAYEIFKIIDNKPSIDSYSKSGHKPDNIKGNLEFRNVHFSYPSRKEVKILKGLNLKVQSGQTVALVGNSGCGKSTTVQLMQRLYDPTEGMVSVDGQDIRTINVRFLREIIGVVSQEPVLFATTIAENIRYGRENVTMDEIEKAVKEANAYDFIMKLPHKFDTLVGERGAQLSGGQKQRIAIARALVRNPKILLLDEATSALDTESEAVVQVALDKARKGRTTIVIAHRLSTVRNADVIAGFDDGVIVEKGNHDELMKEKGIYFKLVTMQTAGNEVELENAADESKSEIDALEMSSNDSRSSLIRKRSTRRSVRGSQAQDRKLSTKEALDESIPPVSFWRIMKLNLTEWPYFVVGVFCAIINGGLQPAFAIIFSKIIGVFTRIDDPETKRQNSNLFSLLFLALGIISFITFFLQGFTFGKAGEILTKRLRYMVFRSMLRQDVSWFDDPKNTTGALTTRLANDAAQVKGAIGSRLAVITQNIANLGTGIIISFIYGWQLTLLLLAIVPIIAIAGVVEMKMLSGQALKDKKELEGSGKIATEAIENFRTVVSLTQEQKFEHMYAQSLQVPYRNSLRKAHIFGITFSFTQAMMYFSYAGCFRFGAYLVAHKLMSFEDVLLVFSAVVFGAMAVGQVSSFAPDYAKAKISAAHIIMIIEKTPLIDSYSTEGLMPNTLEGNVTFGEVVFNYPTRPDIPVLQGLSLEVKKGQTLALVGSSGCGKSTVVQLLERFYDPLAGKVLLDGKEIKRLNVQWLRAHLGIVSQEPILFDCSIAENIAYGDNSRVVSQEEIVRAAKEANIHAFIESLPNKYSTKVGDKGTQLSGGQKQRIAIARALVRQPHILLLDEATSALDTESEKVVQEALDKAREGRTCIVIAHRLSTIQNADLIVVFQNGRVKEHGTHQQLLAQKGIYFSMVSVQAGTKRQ

[3] = target: T2, 5-hydroxytryptamine receptor 1A (Homo sapiens, UniProt P08908); assay: Displacement of [3H]-8-OH-DPAT from human 5-HT1A receptor expressed in HEK293 cells after 1 hr by microbeta plate reader analysis; assay type: cell-based
T2 sequence (P08908 whole entry): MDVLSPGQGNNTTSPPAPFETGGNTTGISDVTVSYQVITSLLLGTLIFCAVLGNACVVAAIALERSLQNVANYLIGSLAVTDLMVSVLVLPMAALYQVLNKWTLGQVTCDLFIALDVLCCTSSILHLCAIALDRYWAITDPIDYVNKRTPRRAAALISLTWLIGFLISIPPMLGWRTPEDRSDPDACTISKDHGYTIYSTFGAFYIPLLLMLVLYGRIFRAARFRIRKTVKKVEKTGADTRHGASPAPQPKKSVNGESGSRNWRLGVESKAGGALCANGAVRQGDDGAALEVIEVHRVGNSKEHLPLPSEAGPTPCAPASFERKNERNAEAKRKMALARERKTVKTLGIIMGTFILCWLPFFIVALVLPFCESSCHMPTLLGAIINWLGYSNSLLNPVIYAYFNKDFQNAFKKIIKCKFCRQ

[4] = target: Histamine H1 receptor (Homo sapiens) (UniProt P35367); assay: Displacement of [3H]pyrilamine from recombinant human H1 receptor at 10^-6 M after 60 mins by radiometric scintillation counting analysis relative to control
Chain of Histamine H1 receptor (Homo sapiens) (P35367 whole entry): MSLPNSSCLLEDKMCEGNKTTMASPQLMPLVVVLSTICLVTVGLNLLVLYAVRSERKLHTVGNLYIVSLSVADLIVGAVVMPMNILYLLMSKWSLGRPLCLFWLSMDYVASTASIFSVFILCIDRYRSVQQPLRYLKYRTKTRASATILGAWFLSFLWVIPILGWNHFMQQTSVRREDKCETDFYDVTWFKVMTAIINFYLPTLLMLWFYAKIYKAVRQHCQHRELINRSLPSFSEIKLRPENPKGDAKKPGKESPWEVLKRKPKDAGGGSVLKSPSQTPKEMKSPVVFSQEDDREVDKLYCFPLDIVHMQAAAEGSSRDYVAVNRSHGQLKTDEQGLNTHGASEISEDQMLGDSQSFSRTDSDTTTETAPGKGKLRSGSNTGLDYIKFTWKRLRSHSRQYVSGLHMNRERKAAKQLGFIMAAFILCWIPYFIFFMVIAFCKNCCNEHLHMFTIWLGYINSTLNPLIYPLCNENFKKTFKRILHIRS

Rattus norvegicus = assay: Reversal of phencyclidine-induced memory impairment in Sprague-Dawley rat at 3 to 10 mg/kg, po for 2 hrs followed by phencyclidine treatment 45 mins prior to testing by novel object recognition test; assay type: functional, organism-based
[5] = target: T3, 5-hydroxytryptamine receptor 2A (Homo sapiens, UniProt P28223); assay: Binding affinity to human 5-HT2AR expressed in HEK293 cells by competitive binding assay; assay type: cell-based
T3 sequence (P28223 whole entry): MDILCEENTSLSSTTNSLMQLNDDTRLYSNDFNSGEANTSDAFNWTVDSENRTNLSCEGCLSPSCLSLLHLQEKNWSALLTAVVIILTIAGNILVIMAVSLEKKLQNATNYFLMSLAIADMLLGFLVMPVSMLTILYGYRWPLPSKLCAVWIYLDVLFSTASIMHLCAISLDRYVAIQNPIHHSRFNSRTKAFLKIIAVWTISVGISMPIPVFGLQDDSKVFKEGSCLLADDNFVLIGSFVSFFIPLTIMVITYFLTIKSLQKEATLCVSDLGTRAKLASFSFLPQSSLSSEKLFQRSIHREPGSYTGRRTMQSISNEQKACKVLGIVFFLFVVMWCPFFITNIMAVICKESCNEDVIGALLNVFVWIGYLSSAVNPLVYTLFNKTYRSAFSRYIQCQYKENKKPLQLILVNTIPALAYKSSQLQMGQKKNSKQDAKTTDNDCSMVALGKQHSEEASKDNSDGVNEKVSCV

[6] = target: T4, Muscarinic acetylcholine receptor M1 (Homo sapiens) (UniProt P11229); assay: Displacement of [3H]pyrilamine from recombinant human M1 receptor at 10^-6 M after 60 mins by radiometric scintillation counting analysis relative to control
T4 sequence (whole entry): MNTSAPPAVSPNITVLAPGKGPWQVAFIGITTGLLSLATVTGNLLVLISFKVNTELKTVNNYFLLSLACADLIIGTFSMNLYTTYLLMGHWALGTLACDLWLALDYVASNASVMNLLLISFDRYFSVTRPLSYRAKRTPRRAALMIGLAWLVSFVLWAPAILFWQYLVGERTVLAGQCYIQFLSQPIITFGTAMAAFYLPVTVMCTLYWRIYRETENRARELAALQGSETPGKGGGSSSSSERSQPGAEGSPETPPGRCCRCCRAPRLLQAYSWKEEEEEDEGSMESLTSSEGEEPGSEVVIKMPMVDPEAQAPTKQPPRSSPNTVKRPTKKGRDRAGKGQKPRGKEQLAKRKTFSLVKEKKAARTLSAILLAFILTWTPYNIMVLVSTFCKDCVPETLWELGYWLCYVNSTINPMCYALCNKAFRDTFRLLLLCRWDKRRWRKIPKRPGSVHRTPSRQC

HepG2 [7] = assay: Cytotoxicity against human HepG2 cells assessed as reduction in cell viability after 24 hrs by presto-blue assay; conditions: HepG2, 24 h
hERG (KCNH2) = hERG (KCNH2) (Homo sapiens, UniProt Q12809); assay: Inhibition of human ERG at 10^-6 M relative to control
5-HT2C receptor = target: T5, 5-HT2C receptor (Homo sapiens, UniProt P28335); assay: Antagonist activity at 5-HT2CR (unknown origin) at 10^-6 M relative to control
T5 sequence (P28335 whole entry): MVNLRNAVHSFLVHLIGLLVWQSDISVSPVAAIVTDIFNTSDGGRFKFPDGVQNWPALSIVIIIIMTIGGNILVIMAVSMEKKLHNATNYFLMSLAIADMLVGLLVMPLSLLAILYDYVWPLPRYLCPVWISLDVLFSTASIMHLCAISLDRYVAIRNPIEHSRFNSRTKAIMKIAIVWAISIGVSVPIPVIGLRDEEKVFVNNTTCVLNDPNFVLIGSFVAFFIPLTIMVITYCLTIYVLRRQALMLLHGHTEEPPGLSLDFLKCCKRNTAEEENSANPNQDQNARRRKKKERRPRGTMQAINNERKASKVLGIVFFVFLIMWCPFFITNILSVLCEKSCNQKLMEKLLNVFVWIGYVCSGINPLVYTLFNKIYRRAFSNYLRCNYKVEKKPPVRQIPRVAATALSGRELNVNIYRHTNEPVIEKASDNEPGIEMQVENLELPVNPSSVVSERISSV

[8] = Half life in rat liver microsomes up to 60 mins by HPLC-LC/MS analysis; conditions: liver microsomes
[9] = target: T3, 5-hydroxytryptamine receptor 2A; assay: Displacement of [3H]-Ketanserin from recombinant human 5-HT2A receptor at 10^-7 M after 60 mins by radiometric scintillation counting analysis relative to control
[10] = target: T3, 5-hydroxytryptamine receptor 2A; assay: Displacement of [3H]-Ketanserin from recombinant human 5-HT2A receptor at 10^-6 M after 60 mins by radiometric scintillation counting analysis relative to control
Cytochrome P450 3A4 = Cytochrome P450 3A4 (Homo sapiens, UniProt P08684); assay: Inhibition of human CYP3A4 preincubated for 5 mins followed by NADPH addition and measured after 30 mins by luminescence based microplate reader analysis; assay type: ADME
Chain of Cytochrome P450 3A4 (P08684 whole entry): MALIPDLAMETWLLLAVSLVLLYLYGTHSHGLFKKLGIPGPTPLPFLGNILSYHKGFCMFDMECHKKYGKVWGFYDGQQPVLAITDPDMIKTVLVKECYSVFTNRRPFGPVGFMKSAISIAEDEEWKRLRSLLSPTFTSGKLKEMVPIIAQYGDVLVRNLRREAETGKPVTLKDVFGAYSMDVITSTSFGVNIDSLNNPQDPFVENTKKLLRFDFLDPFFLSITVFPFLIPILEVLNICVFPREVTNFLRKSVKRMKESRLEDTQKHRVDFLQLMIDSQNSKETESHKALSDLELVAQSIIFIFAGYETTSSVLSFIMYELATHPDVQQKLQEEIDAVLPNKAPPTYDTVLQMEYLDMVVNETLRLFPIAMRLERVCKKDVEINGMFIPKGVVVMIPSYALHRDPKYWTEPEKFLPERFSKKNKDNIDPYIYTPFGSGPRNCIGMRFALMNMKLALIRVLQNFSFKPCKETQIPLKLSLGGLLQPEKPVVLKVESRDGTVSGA

in vitro = conditions: rat, liver microsomes
[11] = Mutagenicity in Salmonella typhimurium TA100 at 1 to 10 uM incubated for 90 mins followed by replating on medium without histidine and measured after 72 hrs by Ames test; assay type: toxicity; conditions: salmonella enterica subsp. enterica serovar typhimurium
[12] = Ratio of Cmax in brain to plasma in Wistar rat at 10 mg/kg, po; assay type: ADME, organism-based; conditions: read-out: BPR
[13] = target: T6, 5-hydroxytryptamine receptor 6 (Homo sapiens, UniProt P50406); assay: Displacement of [3H]-LSD from human 5-HT6R expressed in HEK293 cells after 1 hr by microbeta plate reader analysis; assay type: cell-based
T6 sequence (P50406 whole entry): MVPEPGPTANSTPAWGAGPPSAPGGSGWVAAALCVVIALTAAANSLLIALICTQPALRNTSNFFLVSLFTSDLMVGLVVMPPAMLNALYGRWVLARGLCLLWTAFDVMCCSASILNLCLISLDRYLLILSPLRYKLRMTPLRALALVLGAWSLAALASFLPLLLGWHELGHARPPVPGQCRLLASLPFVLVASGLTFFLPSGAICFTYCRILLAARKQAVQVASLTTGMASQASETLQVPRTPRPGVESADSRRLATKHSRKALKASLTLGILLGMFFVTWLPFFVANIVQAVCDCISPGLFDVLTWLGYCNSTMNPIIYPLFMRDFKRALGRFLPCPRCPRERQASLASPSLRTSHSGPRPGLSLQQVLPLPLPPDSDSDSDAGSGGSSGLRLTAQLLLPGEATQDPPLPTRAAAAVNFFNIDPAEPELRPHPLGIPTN

[14] = target: T6, 5-hydroxytryptamine receptor 6; assay: Antagonist activity at human 5-HT6 receptor expressed in HEK293 cells assessed as inhibition of 5-CT induced cAMP production incubated for 30 mins by TR-FRET assay; assay type: functional, cell-based
HepG2 [15] = assay: Cytotoxicity against human HepG2 cells after 24 hrs by ToxiLight bioassay; conditions: HepG2, 24 h
[16] = target: T7, Alpha-1A adrenergic receptor (Homo sapiens) (UniProt P35348); assay: Displacement of [3H]prazosin from recombinant human alpha 1A adreno receptor at 10^-6 M after 60 mins by radiometric scintillation counting analysis relative to control
T7 sequence (whole entry): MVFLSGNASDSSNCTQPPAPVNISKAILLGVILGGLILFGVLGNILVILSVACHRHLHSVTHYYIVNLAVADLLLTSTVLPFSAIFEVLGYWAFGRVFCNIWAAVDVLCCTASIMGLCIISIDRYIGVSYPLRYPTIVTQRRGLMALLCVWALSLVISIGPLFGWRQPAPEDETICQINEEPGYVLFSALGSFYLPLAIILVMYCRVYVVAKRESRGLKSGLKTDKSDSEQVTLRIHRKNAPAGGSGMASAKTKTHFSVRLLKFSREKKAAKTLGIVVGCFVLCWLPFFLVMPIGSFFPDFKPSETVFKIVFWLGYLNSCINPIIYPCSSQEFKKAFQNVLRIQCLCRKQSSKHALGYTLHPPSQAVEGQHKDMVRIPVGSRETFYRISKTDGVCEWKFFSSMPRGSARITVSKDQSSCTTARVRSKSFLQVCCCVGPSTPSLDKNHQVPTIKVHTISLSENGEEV

P-gp (ABCB1) [17] = target: T1, P-gp (ABCB1); assay: Substrate activity at Pgp (unknown origin) assessed as permeability from basolateral to apical side by cell based assay; assay type: ADME; conditions: not told
Cytochrome P450 2D6 = Cytochrome P450 2D6 (Homo sapiens, UniProt P10635); assay: Inhibition of human CYP2D6 preincubated for 5 mins followed by NADPH addition and measured after 45 mins by luminescence based microplate reader analysis; assay type: ADME
Chain of Cytochrome P450 2D6 (P10635 whole entry): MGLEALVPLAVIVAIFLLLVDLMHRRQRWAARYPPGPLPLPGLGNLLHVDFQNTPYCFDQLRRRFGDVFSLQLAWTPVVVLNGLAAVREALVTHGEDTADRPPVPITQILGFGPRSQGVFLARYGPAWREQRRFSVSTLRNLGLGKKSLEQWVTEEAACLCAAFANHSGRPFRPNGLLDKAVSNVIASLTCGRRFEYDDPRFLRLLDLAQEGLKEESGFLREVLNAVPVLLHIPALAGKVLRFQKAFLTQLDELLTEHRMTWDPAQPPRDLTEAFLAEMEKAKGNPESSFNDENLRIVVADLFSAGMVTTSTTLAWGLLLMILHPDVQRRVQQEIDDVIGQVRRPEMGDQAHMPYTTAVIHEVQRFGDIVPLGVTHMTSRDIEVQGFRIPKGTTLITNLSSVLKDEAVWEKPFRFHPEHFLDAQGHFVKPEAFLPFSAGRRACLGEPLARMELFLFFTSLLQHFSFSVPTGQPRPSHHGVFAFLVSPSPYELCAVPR

[18] = target: 5-hydroxytryptamine receptor 2B (Homo sapiens) (UniProt P41595); assay: Displacement of [3H]-Mesulergine from recombinant human 5-HT2B receptor at 10^-6 M after 60 mins by radiometric scintillation analysis relative to control
Chain of 5-hydroxytryptamine receptor 2B (Homo sapiens) (P41595 whole entry): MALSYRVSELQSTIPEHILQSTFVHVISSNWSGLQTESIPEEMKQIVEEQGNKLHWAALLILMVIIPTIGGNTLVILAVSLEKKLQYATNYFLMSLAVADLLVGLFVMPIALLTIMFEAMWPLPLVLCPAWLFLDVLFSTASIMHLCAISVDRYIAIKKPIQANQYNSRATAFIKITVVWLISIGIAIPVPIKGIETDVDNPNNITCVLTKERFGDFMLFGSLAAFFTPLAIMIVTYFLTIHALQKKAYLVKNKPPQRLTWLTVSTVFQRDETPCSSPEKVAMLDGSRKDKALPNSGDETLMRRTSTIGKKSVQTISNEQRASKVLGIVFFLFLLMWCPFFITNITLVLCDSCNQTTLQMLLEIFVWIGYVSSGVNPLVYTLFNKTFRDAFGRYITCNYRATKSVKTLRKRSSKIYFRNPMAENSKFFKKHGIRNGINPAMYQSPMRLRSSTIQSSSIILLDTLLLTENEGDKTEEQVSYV

- Ki [1]: 13.8 µM
- Papp A→B (P-gp (ABCB1) [2]): 8.87 ×10⁻⁶ cm/s
- Ki [3]: 6.2 µM
- inhibition [4]: 3.2%
- Ki [5]: 0.032 µM
- inhibition [6]: 4%
- inhibition at 1 µM (5-HT2C receptor): 59.9%
- half-life at 1 h [8]: 14 min
- inhibition [9]: 19.1%
- inhibition [10]: 8.9%
- IC50 (Cytochrome P450 3A4): 7.8 µM
- microsomal CLint at 1 h (in vitro): 103 µL/min/mg
- Kp [12]: 0.7
- Ki [13]: 0.025 µM
- Kb [14]: 0.027 µM
- inhibition [16]: 35.5%
- Papp B→A (P-gp (ABCB1) [17]): 3.43 ×10⁻⁶ cm/s
- IC50 (Cytochrome P450 2D6): 8.4 µM
- inhibition [18]: -1.3%
Structure (SMILES): Oc1ccc(-c2ccc(CNCCc3c[nH]c4ncc(F)cc34)o2)cc1
- Activity (Rattus norvegicus): Active
- IC50 (HepG2 [7]): 5.14 µM
- inhibition at 1 µM (hERG (KCNH2)): 42.2%
- Activity [11]: Non-Toxic
- IC50 (HepG2 [15]): 6.2 µM
